Consider 22 compounds from patent publication US20090099195A1 (ASTRAZENECA AB, priority 2007, published 2009).

The target of the assay is T1, hP2X3 (human Purinergic P2X receptors subtype 3), clone B (Homo sapiens, UniProt P56373).
T1 sequence (P56373 1-397): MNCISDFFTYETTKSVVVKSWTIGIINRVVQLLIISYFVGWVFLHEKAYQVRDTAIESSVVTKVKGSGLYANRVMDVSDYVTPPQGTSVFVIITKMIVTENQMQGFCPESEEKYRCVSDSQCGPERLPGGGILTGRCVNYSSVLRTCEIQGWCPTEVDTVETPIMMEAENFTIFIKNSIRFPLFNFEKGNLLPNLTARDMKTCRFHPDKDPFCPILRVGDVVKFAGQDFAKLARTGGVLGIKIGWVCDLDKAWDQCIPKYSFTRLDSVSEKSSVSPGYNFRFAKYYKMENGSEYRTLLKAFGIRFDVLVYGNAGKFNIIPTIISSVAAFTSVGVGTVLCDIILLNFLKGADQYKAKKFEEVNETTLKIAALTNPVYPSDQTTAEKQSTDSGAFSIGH
As to the kind of experiment: hP2X3 FLIPR calcium (Fluo-4) antagonist assay, clone B. Conditions: Human P2X3 FLIPR Clone B IC50 (nM), RLE cells expressing hP2X3 clone B (NM_002559); agonist 500 nM α,β-methylene-ATP.
As to `CC(=O)N1CCN(c2nc3c(c(N(Cc4ccc(Cl)cc4)CC4CC4)n2)CN(C(C)C)C3=O)CC1` [Example 59, 2-(4-acetylpiperazin-1-yl)-4-[(4-chlorobenzyl)(cyclopropylmethyl)amino]-6-isopropyl-5,6-dihydro-7H-pyrrolo[3,4-d]pyrimidin-7-one], the IC50 was found to be 220 nM.
Next, `CC(C)N1Cc2c(NC(C)(C)Cc3ccc(Cl)cc3)nc(N3C[C@@H](C)O[C@@H](C)C3)nc2C1=O` [Example 61, 4-{[2-(4-chlorophenyl)-1,1-dimethylethyl]amino}-2-[(2R,6S)-2,6-dimethylmorpholin-4-yl]-6-isopropyl-5,6-dihydro-7H-pyrrolo[3,4-d]pyrimidin-7-one]: 1400 nM; `CC(=O)NC1CCN(c2nc(NC(C)(C)Cc3ccc(Cl)cc3)c3c(n2)C(=O)N(C(C)C)C3)C1` (stereo not shown) [Example 62, N-[1-(4-{[2-(4-chlorophenyl)-1,1-dimethylethyl]amino}-6-isopropyl-7-oxo-6,7-dihydro-5H-pyrrolo[3,4-d]pyrimidin-2-yl)pyrrolidin-3-yl]acetamide]: 340 nM.
The figure for `CC(C)N1Cc2c(NC(C)(C)Cc3ccc(Cl)cc3)nc(N3CCN(CC(=O)N(C)C)CC3)nc2C1=O` [Example 63, 2-[4-(4-{[2-(4-chlorophenyl)-1,1-dimethylethyl]amino}-6-isopropyl-7-oxo-6,7-dihydro-5H-pyrrolo[3,4-d]pyrimidin-2-yl)piperazin-1-yl]-N,N-dimethylacetamide] is 9200 nM; for `CCN1CCN(c2nc(NC(C)(C)Cc3ccc(Cl)cc3)c3c(n2)C(=O)N(C(C)C)C3)CC1` [Example 64, 4-{[2-(4-chlorophenyl)-1,1-dimethylethyl]amino}-2-(4-ethylpiperazin-1-yl)-6-isopropyl-5,6-dihydro-7H-pyrrolo[3,4-d]pyrimidin-7-one] it is 3500 nM; for `CC(=O)N1CCCN(c2nc(NC(C)(C)Cc3ccc(Cl)cc3)c3c(n2)C(=O)N(C(C)C)C3)CC1` [Example 65, 2-(4-acetyl-1,4-diazepan-1-yl)-4-{[2-(4-chlorophenyl)-1,1-dimethylethyl]amino}-6-isopropyl-5,6-dihydro-7H-pyrrolo[3,4-d]pyrimidin-7-one] it is 420 nM.
Regarding `CC(C)N1Cc2c(NC(C)(C)Cc3ccc(Cl)cc3)nc(NCCCN3CCCC3=O)nc2C1=O` [Example 66, 4-{[2-(4-chlorophenyl)-1,1-dimethylethyl]amino}-6-isopropyl-2-{[3-(2-oxopyrrolidin-1-yl)propyl]amino}-5,6-dihydro-7H-pyrrolo[3,4-d]pyrimidin-7-one], the IC50 was found to be 1400 nM.
Regarding `CC(=O)N(C)C1CCN(c2nc(NC(C)(C)Cc3ccc(Cl)cc3)c3c(n2)C(=O)N(C(C)C)C3)C1` (stereo not shown) [Example 67, N-[1-(4-{[2-(4-chlorophenyl)-1,1-dimethylethyl]amino}-6-isopropyl-7-oxo-6,7-dihydro-5H-pyrrolo[3,4-d]pyrimidin-2-yl)pyrrolidin-3-yl]-N-methylacetamide], the half-inhibitory concentration (IC50) was 450 nM.
With `CC(C)N1Cc2c(NC(C)(C)Cc3ccc(Cl)cc3)nc(N3CCNC(=O)CC3)nc2C1=O` [Example 68, 4-{[2-(4-chlorophenyl)-1,1-dimethylethyl]amino}-6-isopropyl-2-(5-oxo-1,4-diazepan-1-yl)-5,6-dihydro-7H-pyrrolo[3,4-d]pyrimidin-7-one], the half-inhibitory concentration (IC50) stood at 350 nM.
Next, `CC(C)N1Cc2c(NC(C)(C)Cc3ccc(Cl)cc3)nc(NCCN3CCCC3=O)nc2C1=O` [Example 70, 4-{[2-(4-chlorophenyl)-1,1-dimethylethyl]amino}-6-isopropyl-2-{[2-(2-oxopyrrolidin-1-yl)ethyl]amino}-5,6-dihydro-7H-pyrrolo[3,4-d]pyrimidin-7-one]: 780 nM; `CCC(=O)N1CCN(c2nc(NC(C)(C)Cc3ccc(Cl)cc3)c3c(n2)C(=O)N(C(C)C)C3)CC1` [Example 71, 4-{[2-(4-chlorophenyl)-1,1-dimethylethyl]amino}-6-isopropyl-2-(4-propionylpiperazin-1-yl)-5,6-dihydro-7H-pyrrolo[3,4-d]pyrimidin-7-one]: 130 nM; `CC(C)CN1Cc2c(NC(c3ccccc3)c3ccccc3)nc(N3CCOCC3)nc2C1=O` [Example 73, 4-(Benzhydryl-amino)-6-isobutyl-2-morpholin-4-yl-5,6-dihydro-pyrrolo[3,4-d]pyrimidin-7-one]: 3800 nM.
Consider `O=C1c2nc(N3CCOCC3)nc(NC(c3ccccc3)c3ccccc3)c2CN1C1CC1` [Example 74, 4-(Benzhydryl-amino)-6-cyclopropyl-2-morpholin-4-yl-5,6-dihydro-pyrrolo[3,4-d]pyrimidin-7-one], for which the half-inhibitory concentration (IC50) came to 4300 nM.
Next, `O=C1c2nc(N3CCOCC3)nc(NC(c3ccccc3)c3ccccc3)c2CN1C1CCCC1` [Example 75, 4-(Benzhydryl-amino)-6-cyclopentyl-2-morpholin-4-yl-5,6-dihydro-pyrrolo[3,4-d]pyrimidin-7-one]: over 30000 nM; `Cc1ccc(C(Nc2nc(N3CCOCC3)nc3c2CN(C(C)C)C3=O)c2ccccc2)cc1` (stereo not shown) [Example 76, 6-isopropyl-2-morpholin-4-yl-[(phenyl-p-tolyl-methyl)-amino]-5,6-dihydro-pyrrolo[3,4-d]pyrimidin-7-one]: 230 nM; `CC(C)N1Cc2c(NC(c3ccccc3)c3ccc(Cl)cc3)nc(N3CCOCC3)nc2C1=O` (stereo not shown) [Example 77, 4-{[(4-Chloro-phenyl)-phenyl-methyl]-amino}-6-isopropyl-2-morpholin-4-yl-5,6-dihydro-pyrrolo[3,4-d]pyrimidin-7-one]: 260 nM.
The figure for `CCN1CCN(c2nc(NC(c3ccccc3)c3ccccc3)c3c(n2)C(=O)N(C(C)C)C3)CC1` [Example 78, 4-(Benzhydryl-amino)-2-(4-ethyl-piperazin-1-yl)-6-isopropyl-5,6-dihydro-pyrrolo[3,4-d]pyrimidin-7-one] is 400 nM; for `CC(C)N1Cc2c(NC(c3ccccc3)c3ccccc3)nc(N3CCN(C(=O)C4CC4)CC3)nc2C1=O` [Example 79, 4-(Benzhydryl-amino)-2-(4-cyclopropanecarbonyl-piperazin-1-yl)-6-isopropyl-5,6-dihydro-pyrrolo[3,4-d]pyrimidin-7-one] it is 130 nM; for `CC(C)C(=O)N1CCN(c2nc(NC(c3ccccc3)c3ccccc3)c3c(n2)C(=O)N(C(C)C)C3)CC1` [Example 80, 4-(Benzhydryl-amino)-2-(4-isobutyryl-piperazin-1-yl)-6-isopropyl-5,6-dihydro-pyrrolo[3,4-d]pyrimidin-7-one] it is 190 nM.
For `CC(C)N1Cc2c(NC(c3ccccc3)c3ccccc3)nc(NCc3ccccc3)nc2C1=O` [Example 84, 4-(Benzhydryl-amino)-2-benzylamino-6-isopropyl-5,6-dihydro-pyrrolo[3,4-d]pyrimidin-7-one], the IC50 was found to be 830 nM.
In the case of `CC1CN(c2nc(NC(c3ccccc3)c3ccccc3)c3c(n2)C(=O)N(C(C)C)C3)CC(C)O1` (stereo not shown) [Example 86, 4-(Benzhydryl-amino)-2-(2,6-dimethyl-morpholin-4-yl)-6-isopropyl-5,6-dihydro-pyrrolo[3,4-d]pyrimidin-7-one], the concentration for half-maximal inhibition (IC50) came to 280 nM.
Next, `CCC(=O)N1CCN(c2nc(NC(c3ccccc3)c3ccccc3)c3c(n2)C(=O)N(C(C)C)C3)CC1` [Example 87, 4-(Benzhydryl-amino)-6-isopropyl-2-(4-propionyl-piperazin-1-yl)-5,6-dihydro-pyrrolo[3,4-d]pyrimidin-7-one]: 240 nM.

As a reminder, the IC50 is the point on the concentration scale where inhibition reaches its midpoint.
